Assay results from ChEMBL document CHEMBL1129085.
Calls of active or inactive are those of the source. The calls are words filed in the database; no cut-off is given here.

Tests used:
[1] = target: Estrogen receptor (Rattus norvegicus) (UniProt P06211+Q62986); assay: Binding affinity for rat uterine estrogen receptor relative to estradiol; type: protein assay
[2] = target: T1, Estrogen receptor (Mus musculus) (UniProt O08537+P19785)
Description: Anti-uterotropic effect as inhibition of 0.06 ug/injection estrone-induced uterine weight gain in mice at 10 ug/injection dose; No

[3] = target: T1, Estrogen receptor (Mus musculus); assay: Uterotrophic effect in mice at 10 ug/injection dose; No; type: functional, tissue-based; details: Uterus
[4] = target: T1, Estrogen receptor (Mus musculus); assay: Anti-uterotropic effect as inhibition of 0.06 ug/injection estrone-induced uterine weight gain in mice at 10 ug/injection dose; Yes; type: functional

T1 sequence (O08537 whole entry, looked up): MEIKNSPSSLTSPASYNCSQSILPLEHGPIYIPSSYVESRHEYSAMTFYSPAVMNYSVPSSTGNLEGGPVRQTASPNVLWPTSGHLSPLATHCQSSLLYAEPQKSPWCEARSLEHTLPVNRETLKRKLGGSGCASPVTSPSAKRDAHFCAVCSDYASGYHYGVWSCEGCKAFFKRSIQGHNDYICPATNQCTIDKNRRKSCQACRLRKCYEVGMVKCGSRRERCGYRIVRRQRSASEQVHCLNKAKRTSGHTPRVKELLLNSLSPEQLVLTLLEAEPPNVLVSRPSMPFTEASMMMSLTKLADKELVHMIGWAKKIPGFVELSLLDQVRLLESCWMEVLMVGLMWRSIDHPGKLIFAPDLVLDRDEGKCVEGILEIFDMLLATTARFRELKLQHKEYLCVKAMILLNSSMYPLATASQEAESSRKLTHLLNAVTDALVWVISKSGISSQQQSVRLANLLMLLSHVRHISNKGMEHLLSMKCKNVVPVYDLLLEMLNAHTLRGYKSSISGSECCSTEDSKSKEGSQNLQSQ
T1 sequence (P19785 whole entry, looked up): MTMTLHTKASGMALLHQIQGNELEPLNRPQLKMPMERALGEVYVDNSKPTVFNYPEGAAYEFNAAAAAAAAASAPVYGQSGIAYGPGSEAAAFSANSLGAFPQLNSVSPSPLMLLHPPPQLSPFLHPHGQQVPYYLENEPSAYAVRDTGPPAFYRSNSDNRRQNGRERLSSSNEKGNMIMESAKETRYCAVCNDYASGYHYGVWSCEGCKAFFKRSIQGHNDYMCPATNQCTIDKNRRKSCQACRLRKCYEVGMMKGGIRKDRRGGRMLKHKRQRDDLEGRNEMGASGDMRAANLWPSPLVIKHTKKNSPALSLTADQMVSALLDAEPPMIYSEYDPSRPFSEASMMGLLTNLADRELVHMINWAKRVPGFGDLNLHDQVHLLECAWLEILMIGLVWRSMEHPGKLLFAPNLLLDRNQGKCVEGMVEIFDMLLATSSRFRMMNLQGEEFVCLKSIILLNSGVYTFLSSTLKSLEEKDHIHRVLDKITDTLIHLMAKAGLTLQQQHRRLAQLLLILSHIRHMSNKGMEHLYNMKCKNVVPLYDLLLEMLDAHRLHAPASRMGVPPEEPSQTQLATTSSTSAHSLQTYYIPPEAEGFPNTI

SMILES	RBA [1] [%]	Antiuterotrophic activity [2]	Uterotrophic activity [3]	Antiuterotrophic activity [4]
CCCCN(C)C(=O)CCCCCCCCCCCC[C@@H]1C[C@H](O)[C@@]2(C)CC[C@@H]3c4ccc(O)cc4CC[C@H]3[C@H]12	< 0.001	inactive	inactive	–
CCCCN(C)C(=O)CCCCCCCCCC[C@@H]1Cc2cc(O)ccc2[C@H]2CC[C@]3(C)[C@@H](O)CC[C@H]3[C@H]12	1.2	–	inactive	inactive
CCCCN(C)C(=O)CCCCCCCCC1C[C@H](O)[C@@]2(C)CC[C@@H]3c4ccc(O)cc4CC[C@H]3[C@H]12 (some centres not stated)	< 0.001	inactive	inactive	–
CCCCN(C)C(=O)CCCCCCCCCC[C@]1(O)CC[C@H]2[C@@H]3CCc4cc(O)ccc4[C@H]3CC[C@@]21C	0.01	inactive	inactive	–
CCCCN(C)C(=O)CCCCCCCCCCCC[C@H]1C[C@H](O)[C@@]2(C)CC[C@@H]3c4ccc(O)cc4CC[C@H]3[C@H]12	< 0.001	inactive	inactive	–
CCCCN(C)C(=O)CCCCCCCCCC[C@@H]1C[C@H](O)[C@@]2(C)CC[C@@H]3c4ccc(O)cc4CC[C@H]3[C@H]12	< 0.001	–	–	–
CCCCN(C)C(=O)CCCCCCCCCC[C@H]1C[C@H](O)[C@@]2(C)CC[C@@H]3c4ccc(O)cc4CC[C@H]3[C@H]12	0.05	inactive	inactive	–
CCCCN(C)C(=O)CCCCCCCCCCC1C[C@H](O)[C@@]2(C)CC[C@@H]3c4ccc(O)cc4CC[C@H]3[C@H]12 (some centres not stated)	0.001	inactive	inactive	–
